Assay results reported in US5288720A, “Angiotensin II receptor blocking 2,3,6 substituted quinazolinones” (American Cyanamid Company, priority 1993, dated 1994).

Test system: ANGIOTENSIN II VASOPRESSOR RESPONSE
Test: AII Challenge: blockade of angiotensin II vasopressor response in conscious SHR
Type: in vivo, rat (Conscious Male Okamoto-Aoki SHR)
Conditions: SHR n=2
Procedure, shortened: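 Conscious male Okamoto-Aoki SHR (16-20 weeks, ~330 g) cannulated in aorta and vena cava under local procaine; angiotensin II (human) 0.05 and 0.1 ug/kg i.v. given before and at 30-300 min after test compound i.v., i.p. or orally. Rise in systolic pressure (mmHg) expressed as % blockade versus each rat's predose response.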

[1] = 3 mg/kg p.o., AII 0.05 mcg/kg IV, 30 min post dose
[2] = 3 mg/kg p.o., AII 0.05 mcg/kg IV, 60 min post dose
[3] = 3 mg/kg p.o., AII 0.05 mcg/kg IV, 90 min post dose
[4] = 3 mg/kg p.o., AII 0.05 mcg/kg IV, 120 min post dose
[5] = 3 mg/kg p.o., AII 0.05 mcg/kg IV, 180 min post dose
[6] = 3 mg/kg p.o., AII 0.05 mcg/kg IV, 240 min post dose
[7] = 3 mg/kg p.o., AII 0.05 mcg/kg IV, 300 min post dose
[8] = 3 mg/kg p.o., AII 0.1 mcg/kg IV, 30 min post dose
[9] = 3 mg/kg p.o., AII 0.1 mcg/kg IV, 60 min post dose
[10] = 3 mg/kg p.o., AII 0.1 mcg/kg IV, 90 min post dose
[11] = 3 mg/kg p.o., AII 0.1 mcg/kg IV, 120 min post dose
[12] = 3 mg/kg p.o., AII 0.1 mcg/kg IV, 180 min post dose
[13] = 3 mg/kg p.o., AII 0.1 mcg/kg IV, 240 min post dose
[14] = 3 mg/kg p.o., AII 0.1 mcg/kg IV, 300 min post dose
[15] = 10 mg/kg i.v., AII 0.05 mcg/kg IV, 30 min post dose
[16] = 10 mg/kg i.v., AII 0.05 mcg/kg IV, 60 min post dose
[17] = 10 mg/kg i.v., AII 0.05 mcg/kg IV, 90 min post dose
[18] = 10 mg/kg i.v., AII 0.05 mcg/kg IV, 120 min post dose
[19] = 10 mg/kg i.v., AII 0.05 mcg/kg IV, 180 min post dose
[20] = 10 mg/kg i.v., AII 0.05 mcg/kg IV, 240 min post dose
[21] = 10 mg/kg i.v., AII 0.05 mcg/kg IV, 300 min post dose
[22] = 10 mg/kg i.v., AII 0.1 mcg/kg IV, 30 min post dose
[23] = 10 mg/kg i.v., AII 0.1 mcg/kg IV, 60 min post dose
[24] = 10 mg/kg i.v., AII 0.1 mcg/kg IV, 90 min post dose
[25] = 10 mg/kg i.v., AII 0.1 mcg/kg IV, 120 min post dose
[26] = 10 mg/kg i.v., AII 0.1 mcg/kg IV, 180 min post dose
[27] = 10 mg/kg i.v., AII 0.1 mcg/kg IV, 240 min post dose
[28] = 10 mg/kg i.v., AII 0.1 mcg/kg IV, 300 min post dose
[29] = 3 mg/kg i.v., AII 0.05 mcg/kg IV, 30 min post dose
[30] = 3 mg/kg i.v., AII 0.05 mcg/kg IV, 60 min post dose
[31] = 3 mg/kg i.v., AII 0.05 mcg/kg IV, 90 min post dose
[32] = 3 mg/kg i.v., AII 0.05 mcg/kg IV, 120 min post dose
[33] = 3 mg/kg i.v., AII 0.05 mcg/kg IV, 180 min post dose
[34] = 3 mg/kg i.v., AII 0.05 mcg/kg IV, 240 min post dose
[35] = 3 mg/kg i.v., AII 0.05 mcg/kg IV, 300 min post dose
[36] = 3 mg/kg i.v., AII 0.1 mcg/kg IV, 30 min post dose
[37] = 3 mg/kg i.v., AII 0.1 mcg/kg IV, 60 min post dose
[38] = 3 mg/kg i.v., AII 0.1 mcg/kg IV, 90 min post dose
[39] = 3 mg/kg i.v., AII 0.1 mcg/kg IV, 120 min post dose
[40] = 3 mg/kg i.v., AII 0.1 mcg/kg IV, 180 min post dose
[41] = 3 mg/kg i.v., AII 0.1 mcg/kg IV, 240 min post dose
[42] = 3 mg/kg i.v., AII 0.1 mcg/kg IV, 300 min post dose

## CCCCc1nc2ccc(C(OC)C3CCCN(C)C3=O)cc2c(=O)n1Cc1ccc(-c2ccccc2-c2nn[nH]n2)cc1 (single isomer, unassigned; isomer 2) [Example 43, 2-Butyl-6-[methoxy(1-methyl-2-oxo-3-piperidinyl)methyl]-3-[[2'-(1H-tetrazol-5-yl)[1,1'-biphenyl]-4-yl]methyl]-4(3H)-quinazoline isomer 2]
[1]
  % Inhibition of AII vasopressor response: 24%
  Average Change (systolic blood pressure response to AII): 32.5 mmHg
[2]
  % Inhibition of AII vasopressor response: 47%
  Average Change (systolic blood pressure response to AII): 22.5 mmHg
[3]
  % Inhibition of AII vasopressor response: 53%
  Average Change (systolic blood pressure response to AII): 20 mmHg
[4]
  % Inhibition of AII vasopressor response: 53%
  Average Change (systolic blood pressure response to AII): 20 mmHg
[5]
  % Inhibition of AII vasopressor response: 59%
  Average Change (systolic blood pressure response to AII): 17.5 mmHg
[6]
  % Inhibition of AII vasopressor response: 35%
  Average Change (systolic blood pressure response to AII): 27.5 mmHg
[7]
  % Inhibition of AII vasopressor response: 6%
  Average Change (systolic blood pressure response to AII): 40 mmHg
[8]
  % Inhibition of AII vasopressor response: 19%
  Average Change (systolic blood pressure response to AII): 32.5 mmHg
[9]
  % Inhibition of AII vasopressor response: 19%
  Average Change (systolic blood pressure response to AII): 32.5 mmHg
[10]
  % Inhibition of AII vasopressor response: 56%
  Average Change (systolic blood pressure response to AII): 17.5 mmHg
[11]
  % Inhibition of AII vasopressor response: 44%
  Average Change (systolic blood pressure response to AII): 22.5 mmHg
[12]
  % Inhibition of AII vasopressor response: 6%
  Average Change (systolic blood pressure response to AII): 37.5 mmHg
[13]
  % Inhibition of AII vasopressor response: 13%
  Average Change (systolic blood pressure response to AII): 35 mmHg
[14]
  % Inhibition of AII vasopressor response: 8%
  Average Change (systolic blood pressure response to AII): 37 mmHg
[15]
  % Inhibition of AII vasopressor response: 100%
  Average Change (systolic blood pressure response to AII): 0 mmHg
[16]
  % Inhibition of AII vasopressor response: 77%
  Average Change (systolic blood pressure response to AII): 7.5 mmHg
[17]
  % Inhibition of AII vasopressor response: 69%
  Average Change (systolic blood pressure response to AII): 10 mmHg
[18]
  % Inhibition of AII vasopressor response: 69%
  Average Change (systolic blood pressure response to AII): 10 mmHg
[19]
  % Inhibition of AII vasopressor response: 58%
  Average Change (systolic blood pressure response to AII): 13.5 mmHg
[20]
  % Inhibition of AII vasopressor response: 0%
  Average Change (systolic blood pressure response to AII): 32.5 mmHg
[21]
  % Inhibition of AII vasopressor response: 8%
  Average Change (systolic blood pressure response to AII): 30 mmHg
[22]
  % Inhibition of AII vasopressor response: 92%
  Average Change (systolic blood pressure response to AII): 2.5 mmHg
[23]
  % Inhibition of AII vasopressor response: 84%
  Average Change (systolic blood pressure response to AII): 5 mmHg
[24]
  % Inhibition of AII vasopressor response: 84%
  Average Change (systolic blood pressure response to AII): 5 mmHg
[25]
  % Inhibition of AII vasopressor response: 68%
  Average Change (systolic blood pressure response to AII): 10 mmHg
[26]
  % Inhibition of AII vasopressor response: 44%
  Average Change (systolic blood pressure response to AII): 17.5 mmHg
[27]
  % Inhibition of AII vasopressor response: 56%
  Average Change (systolic blood pressure response to AII): 13.5 mmHg
[28]
  % Inhibition of AII vasopressor response: 19%
  Average Change (systolic blood pressure response to AII): 25 mmHg

## CCCCc1nc2ccc(C(OC)C3CCCO3)cc2c(=O)n1Cc1ccc(-c2ccccc2-c2nn[nH]n2)cc1 (single isomer, unassigned; isomer 1) [Example 23, 2-Butyl-6-[methoxy(tetrahydro-2-furanyl)methyl-3-[[2'-(1H-tetrazol-5-yl)[1,1'-biphenyl]-4-yl]-methyl]-4(3e,uns/H/ )-quinazolinone isomer 1]
[29]
  % Inhibition of AII vasopressor response: 97%
  Average Change (systolic blood pressure response to AII): 1 mmHg
[30]
  % Inhibition of AII vasopressor response: 93%
  Average Change (systolic blood pressure response to AII): 2.5 mmHg
[31]
  % Inhibition of AII vasopressor response: 79%
  Average Change (systolic blood pressure response to AII): 7.5 mmHg
[32]
  % Inhibition of AII vasopressor response: 79%
  Average Change (systolic blood pressure response to AII): 7.5 mmHg
[33]
  % Inhibition of AII vasopressor response: 79%
  Average Change (systolic blood pressure response to AII): 7.5 mmHg
[34]
  % Inhibition of AII vasopressor response: 60%
  Average Change (systolic blood pressure response to AII): 14 mmHg
[35]
  % Inhibition of AII vasopressor response: 50%
  Average Change (systolic blood pressure response to AII): 17.5 mmHg
[36]
  % Inhibition of AII vasopressor response: 96%
  Average Change (systolic blood pressure response to AII): 1.5 mmHg
[37]
  % Inhibition of AII vasopressor response: 84%
  Average Change (systolic blood pressure response to AII): 6.5 mmHg
[38]
  % Inhibition of AII vasopressor response: 79%
  Average Change (systolic blood pressure response to AII): 8.5 mmHg
[39]
  % Inhibition of AII vasopressor response: 81%
  Average Change (systolic blood pressure response to AII): 7.5 mmHg
[40]
  % Inhibition of AII vasopressor response: 75%
  Average Change (systolic blood pressure response to AII): 10 mmHg
[41]
  % Inhibition of AII vasopressor response: 50%
  Average Change (systolic blood pressure response to AII): 20 mmHg
[42]
  % Inhibition of AII vasopressor response: 50%
  Average Change (systolic blood pressure response to AII): 20 mmHg
[1]
  % Inhibition of AII vasopressor response: 58%
  Average Change (systolic blood pressure response to AII): 20 mmHg
[2]
  % Inhibition of AII vasopressor response: 21%
  Average Change (systolic blood pressure response to AII): 37.5 mmHg
[3]
  % Inhibition of AII vasopressor response: 37%
  Average Change (systolic blood pressure response to AII): 30 mmHg
[4]
  % Inhibition of AII vasopressor response: 47%
  Average Change (systolic blood pressure response to AII): 25 mmHg
[5]
  % Inhibition of AII vasopressor response: 21%
  Average Change (systolic blood pressure response to AII): 37.5 mmHg
[8]
  % Inhibition of AII vasopressor response: 18%
  Average Change (systolic blood pressure response to AII): 45 mmHg
[9]
  % Inhibition of AII vasopressor response: 14%
  Average Change (systolic blood pressure response to AII): 47.5 mmHg
[10]
  % Inhibition of AII vasopressor response: 32%
  Average Change (systolic blood pressure response to AII): 37.5 mmHg
[11]
  % Inhibition of AII vasopressor response: 36%
  Average Change (systolic blood pressure response to AII): 35 mmHg
[12]
  % Inhibition of AII vasopressor response: 9%
